Experiment in all cases: DTP human tumour cell line panel, 48 h
The test system of assay [1] is DU-145 prostate.
For assay [2], the system named is SK-MEL-28 melanoma.
For assay [3], the system named is EKVX NSCLC.
The subject of assay [4] is OVCAR-8 ovarian.
Assay [5] deals with LOX IMVI melanoma.
Assay [6] deals with CCRF-CEM leukemia.
Assay [7] concerns HS 578T breast.
For assay [8], the system named is M14 melanoma.
The subject of assay [9] is PC-3 prostate.
Assay [10] concerns SF-295 CNS.
Assay [11] concerns NCI/ADR-RES ovarian.
Assay [12] concerns HT29 colon.
For assay [13], the system named is CAKI-1 renal.

This is an account of results in PubChem BioAssay (NCI).

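Where inhibition never reached the appropriate level, the endpoint shown equals the highest concentration tested. Otherwise, values were interpolated linearly from a five-concentration, 48-hour dose response in 96-well plates. TGI denotes the concentration required for complete inhibition of growth.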 A value given as a limit tells only on which side of the number the result lay.

Take `CCCCc1ccc(-n2sc3ncc(C)cc3c2=O)cc1`: the TGI in assay [1] was more than 100 µM; in [2], more than 100 µM; in assay [3] it was 46.9 µM; in assay [4], 51.1 µM; in assay [5] it was 72.3 µM; in [6], 50.5 µM. For the same compound, the TGI in [7] was more than 100 µM; in assay [8] it was 29.4 µM; in [9], 28.2 µM; in assay [10], more than 100 µM; in [11] it was 72 µM.

For the compound `COc1ccc(/C=N/n2c(C)n[nH]c2=O)c(OC)c1`, the total growth inhibition concentration (TGI) in [12], in assay [1], in assay [2], in [3], in assay [4] and in [13] was more than 100 µM in each case. Also, the TGI is more than 100 µM in assay [6]; 9.01 µM in [7]; more than 100 µM in [8]; more than 100 µM in [9]; more than 100 µM in assay [10]; more than 100 µM in assay [11].

With `COC(=O)C(CCSC)NC(=O)CNC(=O)CSc1nnc(COc2ccc(Cl)cc2)n1-c1ccccc1` (configuration not stated), the concentration for total growth inhibition (TGI) in [12] was 31.5 µM; in assay [1] it was 55.8 µM; in [2], 33.3 µM; in assay [5], 23.8 µM; in [6], 26.1 µM; in [7] it was 53.1 µM. Further, the TGI in assay [8] is 33.6 µM; in assay [9], 30.2 µM; in [11], more than 100 µM.

`Clc1cc(Cl)cc(N=C/C=C/Nc2cc(Cl)cc(Cl)c2)c1`: the TGI amounted to 28.5 µM in assay [12]; 44.3 µM in assay [1]; 47 µM in [2]; 26.9 µM in assay [3]; 42.5 µM in assay [4]; 38.2 µM in assay [13]. Also, the total growth inhibition concentration (TGI) in [6] is 60.9 µM; in assay [7] it was more than 100 µM; in assay [8], 47.6 µM; in assay [9], 36.6 µM; in [10] it was 51.4 µM; in assay [11], 34.6 µM.

In the case of `Oc1ccc2cc(Br)ccc2c1-c1c(O)ccc2ccc(Br)cc12`, the total growth inhibition concentration (TGI) came to 10.1 µM in [12]; 29.2 µM in assay [1]; 33.5 µM in assay [2]; 30.4 µM in assay [4]; 34 µM in assay [13]; 28.3 µM in assay [6]. For the same compound, the TGI is 24.2 µM in [7]; 33.1 µM in [8]; 25.3 µM in [9]; 30.6 µM in assay [10]; 27.7 µM in [11].

`CCOC(=O)C1(F)S(=O)(=O)OCCOS1(=O)=O`: the TGI in assay [12], in assay [1], in assay [2], in [3], in assay [4] and in assay [13] was more than 100 µM in each case. Moreover, the total growth inhibition concentration (TGI) in assay [5], in assay [7], in assay [8], in assay [9], in assay [10] and in [11] was more than 100 µM in each case.

`COC(=O)c1cc2c(c3c1CC(Cc1ccccc1)C3=O)CCC2` (configuration not stated): the TGI in assay [12], in assay [1], in [2], in assay [3], in assay [4] and in assay [5] was more than 100 µM throughout. In addition, the TGI in [6], in assay [7], in assay [8], in assay [9], in assay [10] and in assay [11] was more than 100 µM throughout.

On to `CC1=NC(=Cc2ccccc2O)C(=O)N1n1c(-c2ccccc2)nc2ccccc2c1=O`, for which the TGI in assay [12], in assay [1], in assay [2], in assay [3], in assay [4] and in [5] was more than 100 µM each time. The TGI in assay [6] is more than 100 µM; in assay [7], more than 100 µM; in [8], more than 100 µM; in assay [9] it was more than 100 µM; in [10], more than 100 µM; in [11], 93.5 µM.

For the compound `CCOC(=O)c1nc2cc(C(F)(F)F)ccc2nc1Nc1ccc(OC)cc1`, the concentration for total growth inhibition (TGI) in assay [12], in assay [1], in assay [2], in [3], in assay [4] and in [13] was more than 100 µM in each case. Also, the TGI in assay [5], in [7], in assay [8], in [9], in assay [10] and in [11] was more than 100 µM each time.

On to `CCOC(=O)NNC(=O)NCc1cccc(CNC(=O)NNC(=O)OCC)c1`, for which the TGI in [12], in assay [1], in assay [2], in assay [3], in [4] and in assay [13] was more than 100 µM each time. Besides, the TGI in assay [5], in assay [6], in [7], in assay [8], in assay [9] and in assay [11] was more than 100 µM in each case.

On to `CC(=O)Oc1ccc(/C=C/C(=O)OCCCOC(=O)/C=C/c2ccc(OC(C)=O)c(OC(C)=O)c2)cc1OC(C)=O`, for which the TGI in [12], in assay [1], in assay [2], in assay [3], in [4] and in assay [13] was more than 100 µM each time. Further, the total growth inhibition concentration (TGI) in assay [5], in assay [7], in assay [8], in [9], in assay [10] and in assay [11] was more than 100 µM each time.

`C[C@]12C[C@@H](OC(=O)[C@]1(C)O)[C@@H]([C@]1(O)CC[C@H]3[C@@H]4C[C@H]5O[C@]56C[C@H]5O[C@H]5C(=O)[C@]6(C)[C@H]4CC[C@@]31C)C2`: the TGI in assay [12], in assay [1], in assay [2], in assay [3], in assay [4] and in assay [13] was more than 50 µM in each case. For the same compound, the TGI in [6], in assay [7], in assay [8], in assay [9], in [10] and in [11] was more than 50 µM throughout.

`CCOC(=O)N1N=C(/C(C)=N/OC)C(C)S1=O` (configuration not stated): the TGI in [12], in assay [1], in [2], in [3], in [4] and in [13] was more than 100 µM throughout. Moreover, the TGI in assay [6], in [7], in [8], in [9], in assay [10] and in [11] was more than 100 µM throughout.

As for `CCCCCCCC1(N=[N+]=[N-])C(=O)Nc2ccccc2C1=O` (configuration not stated), the concentration for total growth inhibition (TGI) in assay [12] worked out at 56.8 µM; in assay [1], 31.8 µM; in assay [2], 30.7 µM; in [13], 27.8 µM; in assay [5], 26.9 µM; in assay [6], 95.4 µM. The concentration for total growth inhibition (TGI) in assay [7] was 42 µM; in assay [8], 33.2 µM; in [9], 24.1 µM; in [10], 36.2 µM; in assay [11], 48.5 µM.

In the case of `O=C1Cc2c([nH]c3ccc(Br)cc23)-c2cc(O)c(O)cc2N1`, the TGI in assay [1], in assay [2], in assay [3], in [4], in assay [13] and in [5] was more than 100 µM each time. Besides, the TGI in assay [7], in assay [8], in assay [9], in [10] and in assay [11] was more than 100 µM throughout.

For `CC1(C)OCC([C@H]2O[C@@H](CC(=S)NCCCCCCCCCCCCNC(=S)C[C@H]3O[C@@H](C4COC(C)(C)O4)[C@H]4OC(C)(C)O[C@H]43)[C@H]3OC(C)(C)O[C@H]32)O1` (some centres not stated), the TGI in assay [12], in assay [1], in assay [2], in assay [3], in assay [4] and in [13] was more than 100 µM throughout. For the same compound, the total growth inhibition concentration (TGI) was more than 100 µM in [5]; more than 100 µM in assay [7]; more than 100 µM in assay [8]; more than 100 µM in assay [9]; more than 100 µM in assay [10]; 94.2 µM in assay [11].

In the case of `COc1ccc(OC)c(CNc2ccc(C(=O)O)cc2)c1`, the TGI in assay [12], in assay [1], in assay [2], in assay [3], in assay [4] and in [13] was more than 100 µM throughout. The TGI in assay [5], in assay [6], in [7], in assay [8], in assay [9] and in [11] was more than 100 µM each time.
